Molecular target: T1, HTR1A (Homo sapiens, UniProt P08908)
T1 construct: purchased Promega (in-house HiBiT-GPCR construct library, NanoBRET)
T1 sequence (P08908 1-422): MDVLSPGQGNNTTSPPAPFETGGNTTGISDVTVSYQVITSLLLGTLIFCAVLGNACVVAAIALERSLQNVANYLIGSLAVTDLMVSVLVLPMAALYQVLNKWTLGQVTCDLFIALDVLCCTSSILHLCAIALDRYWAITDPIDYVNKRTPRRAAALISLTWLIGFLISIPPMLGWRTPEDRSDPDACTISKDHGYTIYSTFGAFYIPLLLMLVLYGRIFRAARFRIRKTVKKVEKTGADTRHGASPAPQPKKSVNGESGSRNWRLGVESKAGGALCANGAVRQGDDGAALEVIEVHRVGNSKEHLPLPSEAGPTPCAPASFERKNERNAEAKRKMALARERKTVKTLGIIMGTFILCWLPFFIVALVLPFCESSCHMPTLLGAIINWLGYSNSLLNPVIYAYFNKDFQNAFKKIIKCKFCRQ
Test: NanoBRET screen HiBiT-HTR1A in HEK293
Assay type: binding
Description: Each tracer candidate was screened across the entire library of HiBiT-GPCR constructs using NanoBRET as the detection modality. As depicted in Figure 4A, the specificity of interactions was evaluated through decrease in BRET due to competitive displacement of a bound tracer by excess parental compound. Each tracer was analyzed for binding to each HiBiT-GPCR fusion in the absence and in the presence of competing parental compound. Briefly, HEK293 cells were transfected with HiBiT-GPCR constructs diluted into promoterless DNA to reduce expression and maximize translocation to the cell surface. Each tracer candidate was then screened at concentrations of 1 μM and 0.1 μM across cells expressing these fusions. Cells were treated for 1.5 h with tracer either alone or in the presence of 20 μM competing parental compound (i.e., control). BRET was measured upon addition of purified LgBiT and subsequent complementation with HiBiT genetically fused to a GPCR. The specificity of interactions was assessed through a decrease in BRET signal due to competitive displacement of the bound tracer. To further gauge the robustness of these interactions, the fold response over the control (i.e., BRETtracer/BRETcontrol) was calculated. We chose a 1.5-fold response, which translates to ≥7-fold signal over noise as the minimal threshold required to score an interaction as positive.
HiBiT-GPCR DNA constructs were diluted in 10 mM Tris pH 8 to a final concentration of 0.01 μg/μL, arrayed in 96-well plates and stored at −20 °C. For transfection, HEK293 cells were suspended in Opti-MEM (without phenol red) supplemented with 2% fetal bovine serum (Seradigm) and 100 units/mL penicillin–streptomycin (Gibco) at a final concentration of 220,000 cells/mL and dispensed into white 96-well plates at 90 μL/well. Subsequent transfections and screens were carried using an Agilent Bravo Automated Liquid Handling Platform. First, the 96-well HiBiT DNA arrays were diluted 25-fold in Opti-MEM (without serum or phenol red) to a final concentration of 0.0004 μg/μL and 20 μL of the diluted DNAs were transferred into new 96-well plates. Next, promoterless carrier DNA (1 μg/μL) was diluted 25-fold (0.04 μg/μL) and then dispensed into the diluted arrays at 20 μL/well. Following brief mixing, Viafect transfection reagent (Promega) diluted 16-fold into Opti-MEM was dispensed into the plates at 40 μL/well. After mixing by pipetting, plates were incubated for 10 min on the pipetting station deck. The DNA-transfection reagent complexes were then added to plates containing cells. To facilitate the screen, 10 μL of DNA-transfection reagent complexes were added in duplicates to the top 4 and bottom 4 rows, resulting in two identical 48-well arrays per plate. Plates with transfected cells were incubated for 18–20 h at 37 °C/5% CO2. A screen of each tracer across the entire library using two different concentrations requires duplicate plates of transfected cells. Depending on the number of tracers being screened, transfections can be scaled up using the same ratios. The next day, for each tracer, four 20× screening solutions in tracer dilution buffer (Promega) were prepared: two duplicates at final concentration of 20 μM and two duplicates at a final concentration of 2 μM. […] The four resulting solutions were diluted 4-fold in Opti-MEM without serum or phenol red to generate 5× solutions (5 µM and 0.5 µM tracer +/− 100 μM competing compound). To screen the library, a BioTek MultiFlo FX liquid dispenser was used to dispense 22.5 µL of tracer solution to the top 4 rows and 22.5 µL tracer + competing compound solution to the 4 bottom rows. Plates were briefly mixed on an orbital shaker and incubated for 1.5 h at room temperature. […] Plates were briefly mixed on an orbital shaker and incubated for 15 min to allow complementation.

Structure (SMILES)	NanoBRET Fold Response (HTR1A, tracer 0.1μM)	NanoBRET Fold Response (HTR1A, tracer 1μM)	further results
Cc1nc2n(c(=O)c1CCN1CCC(c3noc4cc(F)ccc34)CC1)CCCC2OC(=O)NCCOCCOCCOCCOCCNC(=O)CCc1ccc2n1[B-](F)(F)[N+]1=C(c3ccc[nH]3)C=CC1=C2 (centres unmarked) [Risperidone-2-NB590]	1.24	1.15	
CCOC(=O)c1cc(C#N)c(N2CCC(C(=O)NS(=O)(=O)Cc3ccccc3/C=C/C(=O)NCCNC(=O)CCc3ccc4n3[B-](F)(F)[N+]3=C(c5ccc[nH]5)C=CC3=C4)CC2)nc1C [AZD1283-1-NB590]			NanoBRET Fold Response (HTR1A, 0.1μM): 0.97; NanoBRET Fold Response (HTR1A, 1μM): 1.04
Cc1cc2c(s1)Nc1ccccc1N=C2N1CCN(CCCNC(=O)CCOCCOCCOCCOCCNC(=O)CCc2ccc3n2[B-](F)(F)[N+]2=C(c4ccc[nH]4)C=CC2=C3)CC1 [Olanzapine-a-2-NB590]	0.99	1.06	
COc1ccccc1N1CCN(CCCCN2C(=O)c3ccc(CNC(=O)CCOCCNC(=O)c4ccc(CNC(=O)CCc5ccc6n5[B-](F)(F)[N+]5=C(c7ccc[nH]7)C=CC5=C6)cc4)cc3C2=O)CC1 [NAN-190-3-NB590]		1.70	
CC(C)N(CC[C@H](c1ccccc1)c1cc(CCNC(=O)CCOCCOCCOCCOCCNC(=O)CCc2ccc3n2[B-](F)(F)[N+]2=C(c4ccc[nH]4)C=CC2=C3)ccc1O)C(C)C [Tolterodine-2-NB590]	1.14	1.06	
CN(C)CCC=C1c2ccccc2CCc2ccc(C(=O)NCCNC(=O)CCOCCOCCOCCOCCNC(=O)CCc3ccc4n3[B-](F)(F)[N+]3=C(c5ccc[nH]5)C=CC3=C4)cc21 [Amitriptyline-b-2-NB590]			NanoBRET Fold Response (tracer at 0.1μM, listed as amitriptyline-b-2-NB590): 1.19; NanoBRET Fold Response (tracer at 1μM, listed as amitriptyline-b-2-NB590): 1.02
O=C(CCOCCOCCOCCOCCNC(=O)CCc1ccc2n1[B-](F)(F)[N+]1=C(c3ccc[nH]3)C=CC1=C2)NCCCN1CCN(C2=Nc3ccccc3Oc3ccc(Cl)cc32)CC1 [Loxapine-a-2-NB590]	1.15	1.19	
CN(C)CCC=C1c2ccccc2CCc2ccc(C(=O)NCCNC(=O)CCOCCOCCOCCOCCNC(=O)CCc3ccc4n3[B-](F)(F)[N+]3=C(c5ccc[nH]5)C=CC3=C4)cc21 [Amitriptyline-a-2-NB590]			NanoBRET Fold Response (tracer at 0.1μM): 1.33; NanoBRET Fold Response (tracer at 1μM): 1.04
O=C(CCc1ccc2n1[B-](F)(F)[N+]1=C(c3ccc[nH]3)C=CC1=C2)NCCOCCOCCNC(=O)OCCOCCN1CCN(C2=Nc3ccccc3Sc3ccccc32)CC1 [Quetiapine-a-2-NB590]	1.09	1.04	
COc1ccccc1N1CCN(CCCCN2C(=O)c3ccc(CNC(=O)CCOCCOCCOCCOCCNC(=O)CCc4ccc5n4[B-](F)(F)[N+]4=C(c6ccc[nH]6)C=CC4=C5)cc3C2=O)CC1 [NAN-190-2-NB590]	2.15	1.76	
CN1CCN(C2=Nc3cc(Cl)ccc3N(CC(=O)NCCOCCOCCOCCOCCNC(=O)CCc3ccc4n3[B-](F)(F)[N+]3=C(c5ccc[nH]5)C=CC3=C4)c3ccccc32)CC1 [Clozapine-c-2-NB590]			NanoBRET Fold Response (HTR1A, 1μM tracer): 1.12
N#CN/C(=N\CCNC(=O)c1ccc(N)cc1)NCCCOc1cccc(CN2CCCCC2)c1 [Aminopotentidine (unmodified)]			NanoBRET Fold Response (HTR1A, other tracers/Aminopotentidine (unmodified), 0.1μM): 1.28; NanoBRET Fold Response (HTR1A, other tracers/Aminopotentidine (unmodified), 1μM): 1.69
COc1ccc2[nH]c(-c3ccc(CNC(=O)CCOCCOCCOCCOCCNC(=O)CCc4ccc5n4[B-](F)(F)[N+]4=C(c6ccc[nH]6)C=CC4=C5)cc3)c(CCNC(C)=O)c2n1 [AzomelatoninICO9-2-NB590]			NanoBRET Fold Response (0.1μM tracer): 0.95; NanoBRET Fold Response (1μM tracer): 1.15
O=C(CCOCCOCCOCCOCCNC(=O)CCc1ccc2n1[B-](F)(F)[N+]1=C(c3ccc[nH]3)C=CC1=C2)NCCCN1CCN(C2=Nc3cc(Cl)ccc3Nc3ccccc32)CC1 [Clozapine-a-2-NB590]			NanoBRET Fold Response (HTR1A, 0.1μM tracer): 1.16; NanoBRET Fold Response (HTR1A, 1μM tracer): 0.98
CCCn1c(=O)c2[nH]c(-c3ccc(OCC(=O)NCCNC(=O)CCOCCNC(=O)c4ccc(CNC(=O)CCc5ccc6n5[B-](F)(F)[N+]5=C(c7ccc[nH]7)C=CC5=C6)cc4)cc3)nc2n(CCC)c1=O [XAC-3-NB590]	1.01	0.89	
O=C(CCc1ccc2n1[B-](F)(F)[N+]1=C(c3ccc[nH]3)C=CC1=C2)NCc1ccc(C(=O)NCCOCCOCCNCC(O)COc2cccc3ccccc23)cc1 (centres unmarked) [Propranolol-3-NB590]			NanoBRET Fold Response (HTR1A, 0.1μM): 1.38; NanoBRET Fold Response (HTR1A, 1μM): 1.39
O=C(CCc1ccc2n1[B-](F)(F)[N+]1=C(c3ccc[nH]3)C=CC1=C2)NCc1ccc(C(=O)NCCOCCC(=O)N[C@@H]2CC[C@@]3(O)[C@H]4Cc5ccc(O)c6c5[C@@]3(CCN4CC3CC3)[C@H]2O6)cc1 [Naltrexone-3-NB590]	0.94	1.03	
CN(CCC=C1c2ccccc2CCc2ccccc21)C(=O)CCOCCOCCOCCOCCNC(=O)CCc1ccc2n1[B-](F)(F)[N+]1=C(c3ccc[nH]3)C=CC1=C2 [Amitriptyline-e-2-NB590]			NanoBRET Fold Response (tracer at 1μM): 0.99
N#CN=C(NCCCOc1cccc(CN2CCCCC2)c1)NCCNC(=O)CCOCCOCCOCCOCCNC(=O)CCc1ccc2n1[B-](F)(F)[N+]1=C(c3ccc[nH]3)C=CC1=C2 [Aminopotentidine-2-NB590]	1.04	0.98	
COc1ccc2c(n1)c(CCNC(C)=O)cn2CCNC(=O)CCc1ccc2n1[B-](F)(F)[N+]1=C(c3ccc[nH]3)C=CC1=C2 [Azamelatonin-1-NB590]			NanoBRET Fold Response (0.1μM tracer): 1.02; NanoBRET Fold Response (1μM tracer): 1.02
CC(C)N(CC[C@H](c1ccccc1)c1cc(CCNC(=O)c2ccc(CNC(=O)CCc3ccc4n3[B-](F)(F)[N+]3=C(c5ccc[nH]5)C=CC3=C4)cc2)ccc1O)C(C)C [Tolterodine-BZ-NB590]	1.03	1.12	
CN1CCN(C2=Nc3cc(Cl)ccc3Nc3ccc(CNC(=O)CCOCCOCCOCCOCCNC(=O)CCc4ccc5n4[B-](F)(F)[N+]4=C(c6ccc[nH]6)C=CC4=C5)cc32)CC1 [Clozapine-b-2-NB590]			NanoBRET Fold Response (HTR1A, 0.1μM tracer): 0.98; NanoBRET Fold Response (HTR1A, 1μM tracer): 1.21

Source: paper PMC8151276, “An Integrated Approach toward NanoBRET Tracers for Analysis of GPCR Ligand Engagement” (Molecules, 2021)
